Reference: article PMC7619385 (ACS infectious diseases, 2025)

Each molecule was assayed against NLuc::LmxCLK1 (Leishmania mexicana, UniProt E9AMP2) (assay: cell-based). Conditions: 10 µM compound, tracer SV366, promastigotes.
Assay type: cell-based
Experimental: All compounds were tested at a fixed concentration of 10 µM to enable direct comparison of their target occupancy in live cells.
Serially diluted probes (5 µL) were added to 85 µL of cells in culture media or 85 µL of purified protein. Final well volumes were adjusted to 100 µL with sterile Opti-MEM™ I Reduced Serum Medium (Thermo-Scientific) – for wells containing cells; or Kinase Buffer - for wells containing purified protein. For tracer displacement assays, samples were prepared as above, but final volume was brought to 100 µL by addition of vehicle or serially-diluted test compounds. Final DMSO concentration in these assays was 1%. […] Light emissions at 460+10 nm (BRET donor) and at 610+20 nm (BRET acceptor) were sequentially recorded (integration time = 0.5 s, gain = 3600) using a luminometer (BMG LABTECH Clariostar or Biotek Synergy HT). BRET values are reported in milli-BRET (mBRET) units (mBU), obtained by dividing the acceptor luminescence by the donor luminescence and multiplying the result by a factor of 1,000. BRET values were converted to blank-corrected probe occupancies (%) according to equation [1]: (1) Probeoccupancy(%)=X−Z/Y−Z×100 where X = mBRET value in the presence of the test compound and the probe, Y = mBRET value in the presence of probe only, and Z = mBRET value in the absence of probe and test compound. […]
Cc1ccccc1CN1C(=O)C2=C(CCN(Cc3ccccc3)C2)N2CCN=C12 [TIC10] was tested, and the “Target occupancy Run 1” value was 4.1% and the “Target occupancy Run 2” value was -6.1%.
With CNc1nc(Nc2cnn([C@H]3CCN(C4COC4)C[C@@H]3F)c2Cl)ncc1C(F)(F)F [GNE-9605] the “Target occupancy Run 1” value was 3.1% and the “Target occupancy Run 2” value was -5.2%.
For COc1cc2ncnc(Nc3ccc(F)c(Cl)c3)c2cc1NC(=O)/C=C/CN1CCCCC1 [Dacomitinib (PF299804)], the “Target occupancy Run 1” value was 1.4% and the “Target occupancy Run 2” value was -14.2%.
In the case of O=C(NCCO)c1cccc(-c2cc(Nc3ccc(OC(F)(F)F)cc3)ncn2)c1 [GNF-5], the “Target occupancy Run 1” value is reported as -7.9% and the “Target occupancy Run 2” value is reported as -2.3%.
In the case of CC(C)N(CCC(=O)c1ccc2ccccc2c1)Cc1ccccc1.Cl [ZM 39923 HCl], the “Target occupancy Run 1” value is reported as 0.2% and the “Target occupancy Run 2” value is reported as -18.8%.
For O=C1NC(=O)C(=Cc2ccc(-c3ccc(F)cc3)o2)S1 [CAY10505], the “Target occupancy Run 1” value was -12.3% and the “Target occupancy Run 2” value was 10.0%.
In the case of C=CC(=O)Nc1cccc(Nc2nc(Nc3ccc(Oc4ccnc(C(=O)NC)c4)cc3)ncc2F)c1 [CNX-774], the “Target occupancy Run 1” value is reported as -4.4% and the “Target occupancy Run 2” value is reported as -9.3%.
Cl.O=S(=O)(c1cccc2cnccc12)N1CCCNCC1 [Fasudil (HA-1077) HCl] was tested, and the “Target occupancy Run 1” value was 6.9% and the “Target occupancy Run 2” value was -10.2%.
In the case of C#Cc1cccc(Nc2ncnc3cc(OCCOC)c(OCCO)cc23)c1 [OSI-420], the “Target occupancy Run 1” value is reported as -6.8% and the “Target occupancy Run 2” value is reported as 3.7%.
In the case of N[C@@H]1CCCN(c2c(/C=C3\SC(=O)NC3=O)cccc2-c2ccccc2)C1 [AZD1208], the “Target occupancy Run 1” value is reported as 5.0% and the “Target occupancy Run 2” value is reported as -7.9%.
For O=c1cc(-c2cccc3c2Sc2ccccc2S3)oc(N2CCOCC2)c1 [KU-55933 (ATM Kinase Inhibitor)], the “Target occupancy Run 1” value was 4.0% and the “Target occupancy Run 2” value was -21.9%.
O=C(O)[C@]1(Cc2cccc(Nc3nccs3)n2)CC[C@@H](Oc2cccc(Cl)c2F)CC1 [MK-5108 (VX-689)] was tested, and the “Target occupancy Run 1” value was -2.8% and the “Target occupancy Run 2” value was 1.0%.
With C=CS(=O)(=O)NC1CCN(C(=O)CNc2cc(I)c(Cl)cc2OC)CC1 [K-Ras(G12C) inhibitor 9] the “Target occupancy Run 1” value was -21.1% and the “Target occupancy Run 2” value was -10.0%.

Same assay, conditions: 10 µM compound, tracer SV366, promastigotes, mean of two experiments
In the case of Cc1ccccc1CN1C(=O)C2=C(CCN(Cc3ccccc3)C2)N2CCN=C12 [TIC10], the “Target occupancy Average” value is reported as -1.0%.
CNc1nc(Nc2cnn([C@H]3CCN(C4COC4)C[C@@H]3F)c2Cl)ncc1C(F)(F)F [GNE-9605] was tested, and the “Target occupancy Average” value was -1.1%.
With COc1cc2ncnc(Nc3ccc(F)c(Cl)c3)c2cc1NC(=O)/C=C/CN1CCCCC1 [Dacomitinib (PF299804)] the “Target occupancy Average” value was -6.4%.
For O=C(NCCO)c1cccc(-c2cc(Nc3ccc(OC(F)(F)F)cc3)ncn2)c1 [GNF-5], the “Target occupancy Average” value was -5.1%.
With CC(C)N(CCC(=O)c1ccc2ccccc2c1)Cc1ccccc1.Cl [ZM 39923 HCl] the “Target occupancy Average” value was -9.3%.
In the case of O=C1NC(=O)C(=Cc2ccc(-c3ccc(F)cc3)o2)S1 [CAY10505], the “Target occupancy Average” value is reported as -1.2%.
C=CC(=O)Nc1cccc(Nc2nc(Nc3ccc(Oc4ccnc(C(=O)NC)c4)cc3)ncc2F)c1 [CNX-774] was tested, and the “Target occupancy Average” value was -6.8%.
For Cl.O=S(=O)(c1cccc2cnccc12)N1CCCNCC1 [Fasudil (HA-1077) HCl], the “Target occupancy Average” value was -1.7%.
For C#Cc1cccc(Nc2ncnc3cc(OCCOC)c(OCCO)cc23)c1 [OSI-420], the “Target occupancy Average” value was -1.5%.
With N[C@@H]1CCCN(c2c(/C=C3\SC(=O)NC3=O)cccc2-c2ccccc2)C1 [AZD1208] the “Target occupancy Average” value was -1.4%.
In the case of O=c1cc(-c2cccc3c2Sc2ccccc2S3)oc(N2CCOCC2)c1 [KU-55933 (ATM Kinase Inhibitor)], the “Target occupancy Average” value is reported as -9.0%.
With O=C(O)[C@]1(Cc2cccc(Nc3nccs3)n2)CC[C@@H](Oc2cccc(Cl)c2F)CC1 [MK-5108 (VX-689)] the “Target occupancy Average” value was -0.9%.
C=CS(=O)(=O)NC1CCN(C(=O)CNc2cc(I)c(Cl)cc2OC)CC1 [K-Ras(G12C) inhibitor 9] was tested, and the “Target occupancy Average” value was -15.5%.

Each molecule was assayed against T1, LmxCLK1 (Leishmania mexicana, UniProt E9AMP2) (assay: biochemical). Conditions: not given.
T1 sequence (E9AMP2 1-422): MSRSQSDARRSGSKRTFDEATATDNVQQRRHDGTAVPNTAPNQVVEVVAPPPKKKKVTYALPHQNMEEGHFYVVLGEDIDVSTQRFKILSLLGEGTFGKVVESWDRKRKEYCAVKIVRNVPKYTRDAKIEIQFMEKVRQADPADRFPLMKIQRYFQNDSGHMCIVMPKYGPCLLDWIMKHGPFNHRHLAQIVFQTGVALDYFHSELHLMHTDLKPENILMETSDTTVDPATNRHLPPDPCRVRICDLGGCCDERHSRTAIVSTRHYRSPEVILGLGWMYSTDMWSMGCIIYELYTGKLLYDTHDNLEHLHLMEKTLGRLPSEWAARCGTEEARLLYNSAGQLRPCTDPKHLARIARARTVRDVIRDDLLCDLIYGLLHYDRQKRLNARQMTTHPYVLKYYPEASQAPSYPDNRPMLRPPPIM
Assay type: binding
Cc1ccccc1CN1C(=O)C2=C(CCN(Cc3ccccc3)C2)N2CCN=C12 [TIC10] gave a ΔTm Average of 0.2 °C, a ΔTm Run 1 of 0.2 °C and a ΔTm Run 2 of 0.2 °C.
CNc1nc(Nc2cnn([C@H]3CCN(C4COC4)C[C@@H]3F)c2Cl)ncc1C(F)(F)F [GNE-9605] was tested, and the “ΔTm Average” value was -0.4, the “ΔTm Run 1” value was -0.2 and the “ΔTm Run 2” value was -0.5.
O=C(NCCO)c1cccc(-c2cc(Nc3ccc(OC(F)(F)F)cc3)ncn2)c1 [GNF-5] was tested, and the “ΔTm Average” value was -0.3, the “ΔTm Run 1” value was -0.2 and the “ΔTm Run 2” value was -0.3.

Same assay, conditions: DSF, 10 µM compound, 2 µM LmxCLK1, Run 1
COc1cc2ncnc(Nc3ccc(F)c(Cl)c3)c2cc1NC(=O)/C=C/CN1CCCCC1 [Dacomitinib (PF299804)] was tested, and the “ΔTm Run 1” value was -0.4 °C.
For CC(C)N(CCC(=O)c1ccc2ccccc2c1)Cc1ccccc1.Cl [ZM 39923 HCl], the “ΔTm Run 1” value was 0.0 °C.
In the case of O=C1NC(=O)C(=Cc2ccc(-c3ccc(F)cc3)o2)S1 [CAY10505], the “ΔTm Run 1” value is reported as 0.1 °C.
C=CC(=O)Nc1cccc(Nc2nc(Nc3ccc(Oc4ccnc(C(=O)NC)c4)cc3)ncc2F)c1 [CNX-774] was tested, and the “ΔTm Run 1” value was -0.3 °C.
For Cl.O=S(=O)(c1cccc2cnccc12)N1CCCNCC1 [Fasudil (HA-1077) HCl], the “ΔTm Run 1” value was 0.9 °C.
In the case of C#Cc1cccc(Nc2ncnc3cc(OCCOC)c(OCCO)cc23)c1 [OSI-420], the “ΔTm Run 1” value is reported as 0.2 °C.
In the case of N[C@@H]1CCCN(c2c(/C=C3\SC(=O)NC3=O)cccc2-c2ccccc2)C1 [AZD1208], the “ΔTm Run 1” value is reported as 0.1 °C.
In the case of O=c1cc(-c2cccc3c2Sc2ccccc2S3)oc(N2CCOCC2)c1 [KU-55933 (ATM Kinase Inhibitor)], the “ΔTm Run 1” value is reported as 0.6 °C.
With O=C(O)[C@]1(Cc2cccc(Nc3nccs3)n2)CC[C@@H](Oc2cccc(Cl)c2F)CC1 [MK-5108 (VX-689)] the “ΔTm Run 1” value was -0.1 °C.
For C=CS(=O)(=O)NC1CCN(C(=O)CNc2cc(I)c(Cl)cc2OC)CC1 [K-Ras(G12C) inhibitor 9], the “ΔTm Run 1” value was 0.3 °C.

Same assay, conditions: DSF, 10 µM compound, 2 µM LmxCLK1, Run 2
In the case of COc1cc2ncnc(Nc3ccc(F)c(Cl)c3)c2cc1NC(=O)/C=C/CN1CCCCC1 [Dacomitinib (PF299804)], the “ΔTm Run 2” value is reported as -0.5 °C.
For CC(C)N(CCC(=O)c1ccc2ccccc2c1)Cc1ccccc1.Cl [ZM 39923 HCl], the “ΔTm Run 2” value was -0.3 °C.
With O=C1NC(=O)C(=Cc2ccc(-c3ccc(F)cc3)o2)S1 [CAY10505] the “ΔTm Run 2” value was -0.1 °C.
For C=CC(=O)Nc1cccc(Nc2nc(Nc3ccc(Oc4ccnc(C(=O)NC)c4)cc3)ncc2F)c1 [CNX-774], the “ΔTm Run 2” value was 0.0 °C.
For Cl.O=S(=O)(c1cccc2cnccc12)N1CCCNCC1 [Fasudil (HA-1077) HCl], the “ΔTm Run 2” value was 0.6 °C.
For C#Cc1cccc(Nc2ncnc3cc(OCCOC)c(OCCO)cc23)c1 [OSI-420], the “ΔTm Run 2” value was 0.1 °C.
With N[C@@H]1CCCN(c2c(/C=C3\SC(=O)NC3=O)cccc2-c2ccccc2)C1 [AZD1208] the “ΔTm Run 2” value was -0.4 °C.
O=c1cc(-c2cccc3c2Sc2ccccc2S3)oc(N2CCOCC2)c1 [KU-55933 (ATM Kinase Inhibitor)] was tested, and the “ΔTm Run 2” value was 0.2 °C.
In the case of O=C(O)[C@]1(Cc2cccc(Nc3nccs3)n2)CC[C@@H](Oc2cccc(Cl)c2F)CC1 [MK-5108 (VX-689)], the “ΔTm Run 2” value is reported as -0.2 °C.
C=CS(=O)(=O)NC1CCN(C(=O)CNc2cc(I)c(Cl)cc2OC)CC1 [K-Ras(G12C) inhibitor 9] was tested, and the “ΔTm Run 2” value was -0.6 °C.

Same assay, conditions: DSF, 10 µM compound, 2 µM LmxCLK1, mean of two runs
For COc1cc2ncnc(Nc3ccc(F)c(Cl)c3)c2cc1NC(=O)/C=C/CN1CCCCC1 [Dacomitinib (PF299804)], the “ΔTm Average” value was -0.4 °C.
In the case of CC(C)N(CCC(=O)c1ccc2ccccc2c1)Cc1ccccc1.Cl [ZM 39923 HCl], the “ΔTm Average” value is reported as -0.2 °C.
O=C1NC(=O)C(=Cc2ccc(-c3ccc(F)cc3)o2)S1 [CAY10505] was tested, and the “ΔTm Average” value was 0.0 °C.
With C=CC(=O)Nc1cccc(Nc2nc(Nc3ccc(Oc4ccnc(C(=O)NC)c4)cc3)ncc2F)c1 [CNX-774] the “ΔTm Average” value was -0.2 °C.
Cl.O=S(=O)(c1cccc2cnccc12)N1CCCNCC1 [Fasudil (HA-1077) HCl] was tested, and the “ΔTm Average” value was 0.7 °C.
With C#Cc1cccc(Nc2ncnc3cc(OCCOC)c(OCCO)cc23)c1 [OSI-420] the “ΔTm Average” value was 0.1 °C.
In the case of N[C@@H]1CCCN(c2c(/C=C3\SC(=O)NC3=O)cccc2-c2ccccc2)C1 [AZD1208], the “ΔTm Average” value is reported as -0.1 °C.
In the case of O=c1cc(-c2cccc3c2Sc2ccccc2S3)oc(N2CCOCC2)c1 [KU-55933 (ATM Kinase Inhibitor)], the “ΔTm Average” value is reported as 0.4 °C.
With O=C(O)[C@]1(Cc2cccc(Nc3nccs3)n2)CC[C@@H](Oc2cccc(Cl)c2F)CC1 [MK-5108 (VX-689)] the “ΔTm Average” value was -0.1 °C.
C=CS(=O)(=O)NC1CCN(C(=O)CNc2cc(I)c(Cl)cc2OC)CC1 [K-Ras(G12C) inhibitor 9] was tested, and the “ΔTm Average” value was -0.1 °C.
